# Assay results published in article PMC12254266, “Multicolored sequential resonance energy transfer for detection of simultaneous ligand binding at G protein-coupled receptors” (Nature Communications, 2025).
# Several values for one entry are separate records, joined by “and”; a condition that tells them apart may be missing. Identical values can stand only once.
# Assays:
# FFA1 = FFA1 (Homo sapiens, UniProt O14842); test: Ca2+ mobilisation (Fura2) in Flp-In T-REx 293 cells expressing Nluc-FFA1, FFA1-Nluc or untagged FFA1; type: cell-based; design: expressed in transfected cells; settings: NR = No response; for pEC50: Ca2+ data, mean±SEM; for EMax: percentage of response to 10 μM T360
# Protocol: Nluc-FFA1, FFA1-Nluc or untagged FFA1 Flp-In T-REx 293 cells were plated at 50,000 cells per well in poly-D-lysine coated black clear bottom 96-well plates. Cells were then cultured for 24 h until reaching confluency before culture medium was replaced with medium containing 100 ng/mL of doxycycline to induce receptor expression. Cells were cultured for a further 24 h before the assay. On the day of the assay culture medium was removed and replaced with medium containing 3 μM Fura2-AM Ca^2+ dye. […] Fura2 fluorescent emission at 520 nm following excitation with each of 340 and 380 nm was measured in regular intervals both before and after adding test compounds for a total of 90 s per well. Calcium responses were determined by taking the peak 340/380 ratio after first subtracting the ratios obtained prior to addition of test compound.
# FFA1-Nluc = FFA1-Nluc (Homo sapiens, UniProt O14842); test: DISCo-BRET (endpoint, spectra scan, kinetics) with TUG-2591 and TUG-2597 at C terminal Nluc tagged FFA1; type: binding; design: expressed in transfected cells; settings: for Specific BRET (540/450), % of control: Figure 4Bi, single replicate values (technical duplicate); for Specific BRET (690/540), % of control: technical duplicate
# Protocol: Nluc-FFA1 or FFA1-Nluc Flp-In T-REx 293 cells were plated at 50,000 cells per well in poly-D-lysine coated white 96-well plates. Cells were cultured for 24 h in the plate before medium was replaced with medium containing 100 ng/mL of doxycycline to induce receptor expression. After culturing for a further 24 h, culture medium was removed, cells washed with HBSS and incubated in HBSS for 30 min. For all DISCo-BRET formats Nano-Glo substrate was then added at a 1:800 final dilution and cells incubated for 10 min. Following substrate addition experimental set up different among the three formats: endpoint, spectra scan, and kinetics.
# For endpoint experiments all fluorescent and unlabelled ligands were added to the cells and incubated for 5 min at 37 °C. Luminescent emission was then measured using a CLARIOstar microplate reader with monochromator set at 450–60 nm (Nluc), 540−60 nm (NBD) and 690–100 nm (SulfoCy5). BRET ratios were then calculated as either SulfoCy5 emission divided by NBD emission, SulfoCy5 emission divided by Nluc emission, or NBD emission divided by Nluc emission.
# For spectra scan experiments all indicated fluorescent and unlabelled ligands were added to the cells and cells incubated for 5 min at 37 °C. Luminescence emissions were then measured from each well of the plate from 440 nm – 740 nm with a 5 nm resolution using a CLARIOstar microplate. Luminescent emission spectra were then normalised as a percentage of the maximal Nluc emission peak ( ~ 460 nm), then subtracted with the spectrum obtained in the presence of high concentrations of ligands competing for both binding sites to obtain specific BRET binding spectra.
# In kinetic DISCo-BRET experiments plates were placed directly in a CLARIOstar plate reader set to 25 °C 10 min after Nano-Glo substrate addition. Luminescent measurements were then taken with three sequential measurements per well with the monochromator set to 450–60 nm (Nluc), 540 - 60 nm (NBD) and 690–100 nm (SulfoCy5) taken in 20 or 30 s intervals. After 5 min of background measurements, the plate reader was paused for the first indicated fluorescent ligand(s) addition, before immediately returning the plate to the reader to continue luminescence readings. After 5 min, the reader was again paused to add the second fluorescent ligand (association assays) or competing ligand(s) (dissociation assays), before immediately continuing the measurements for the indicated time. Non-specific control binding was obtained by adding the indicated competing ligand(s) 5 min prior to the addition of the first fluorescent ligand.
# Nluc-FFA1 = molecular target: T1, Nluc-FFA1 (Homo sapiens, UniProt O14842); test: NanoBRET binding (saturation, competition, kinetics) at N terminal Nluc tagged FFA1; settings: technical duplicates; for Specific BRET (690/450)%: Figure 4Ci; for Specific BRET (540/450)%: Figure 4Cii
# T1 construct: expressed in transfected cells
# Protocol: Nluc-FFA1 or FFA1-Nluc Flp-In T-REx 293 cells were plated at 50,000 cells per well in poly-D-lysine coated white 96-well plates. Cells were cultured for 24 h in the plate before medium was replaced with medium containing 100 ng/mL of doxycycline to induce receptor expression. After culturing for a further 24 h, medium was removed, cells were washed with HBSS and incubated in HBSS for 30 min. To start the assay, NanoGlo substrate (Promega, N1110) was added to the cells at a 1:800 final dilution and incubated for 10 min at 37 °C. For endpoint assays, including both saturation and competition binding, test ligands were then added, including both fluorescent and unlabelled competing ligands as indicated, and plates incubated for a further 5 min at 37 °C. NanoBRET was then quantified in a CLARIOstar microplate reader (BMG Labtech) by measuring luminescent emission with the monochrometer set for the Nluc donor at 450–60 nm, and acceptor luminescent emission 540–60 nm (NBD), 600–80 nm (Cy3.5) or 690–100 nm (SulfoCy5), depending on which fluorophore was being tested. The acceptor/donor BRET ratio was then taken as a measure of fluorophore binding. For kinetic on then off NanoBRET experiments plates were washed the same way and substrate was added to the same concentration. However, 10 min after substrate was added plates were inserted into the CLARIOstar microplate reader set to 25 °C to take repeated measurements of luminescent emission for both the donor and the acceptor fluorophore being used. After 5 min of background measurements, the indicated concentration of fluorescent ligand was added using the plate reader injector and luminescent emission was monitored for ~10 min before the reader was paused to manually add a high concentration of appropriate competing ligand to initiate dissociation. The plate was returned to the reader and luminescence measurements were continued for a further 30 min to monitor dissociation of the fluorescent ligand. For kinetic experiments using multiple concentrations of fluorescent ligand, cells were placed in the plate reader immediately after the addition of Nano-Glo substrate and luminescent measurements were taken. After 5 min, the reader was paused to add the indicated concentrations of fluorescent ligand, before measurements were continued. To set non-specific binding for kinetic experiments, the indicated competing ligand was added 5 min before the addition of the fluorescent ligand.
# FFA1, sequence (O14842 whole entry): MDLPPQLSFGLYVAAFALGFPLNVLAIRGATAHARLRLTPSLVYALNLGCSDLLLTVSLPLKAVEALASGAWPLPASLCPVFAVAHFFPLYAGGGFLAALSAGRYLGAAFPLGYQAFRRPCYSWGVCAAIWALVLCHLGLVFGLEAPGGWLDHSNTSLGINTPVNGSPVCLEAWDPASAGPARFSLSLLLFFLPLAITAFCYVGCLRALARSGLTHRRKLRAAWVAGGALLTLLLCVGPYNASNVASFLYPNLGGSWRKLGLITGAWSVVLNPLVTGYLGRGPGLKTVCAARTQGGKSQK
# T1 sequence (O14842 whole entry): as above
# FFA1-Nluc, sequence (O14842 whole entry): as above
smiles,measurement,setting,value
COc1ccc(C(=O)N2CCC(CCNC(=O)OC(C)(C)C)CC2)c(N2CCC(COc3cccc(C(CC(=O)O)C4CC4)c3)CC2)c1.O=C(O)C(F)(F)F (centres unmarked) [TUG-2451],pEC50,FFA1,6.20±0.14
same,EMax,FFA1,112±10%
COc1ccc(C(=O)NCC(C)(C)CNC(=O)OC(C)(C)C)c(N2CCC(COc3cccc(C(CC(=O)O)C4CC4)c3)CC2)c1.Cl (centres unmarked) [TUG-2457],pEC50,FFA1,6.62±0.15
same,EMax,FFA1,108±3%
Cc1cc(OCCCS(C)(=O)=O)cc(C)c1-c1cccc(COc2ccc3c(c2)OC[C@H]3CC(=O)O)c1 [TAK-875],"Specific BRET (540/450), % of control",FFA1-Nluc; log[Ligand] -6,467.51 % of control and 353.62 % of control and 390.67 % of control and 390.47 % of control and 245.96 % of control and 264.46 % of control and 322.48 % of control and 320.38 % of control
same,"Specific BRET (540/450), % of control",FFA1-Nluc; log[Ligand] -6.5,416.30 % of control and 439.27 % of control and 347.06 % of control and 353.35 % of control and 259.50 % of control and 260.52 % of control and 247.59 % of control and 261.94 % of control
same,"Specific BRET (540/450), % of control",FFA1-Nluc; log[Ligand] -7,359.13 % of control and 319.17 % of control and 300.41 % of control and 327.99 % of control and 232.12 % of control and 230.66 % of control and 238.32 % of control (2×)
same,"Specific BRET (540/450), % of control",FFA1-Nluc; log[Ligand] -7.5,230.54 % of control and 249.60 % of control and 216.23 % of control and 242.80 % of control and 172.25 % of control and 154.77 % of control and 142.78 % of control and 178.30 % of control
same,"Specific BRET (540/450), % of control",FFA1-Nluc; log[Ligand] -8,168.77 % of control and 177.73 % of control and 170.59 % of control and 182.76 % of control and 139.62 % of control and 128.26 % of control and 117.24 % of control and 129.48 % of control
same,"Specific BRET (540/450), % of control",FFA1-Nluc; log[Ligand] -9,109.76 % of control and 130.42 % of control and 118.05 % of control and 144.22 % of control and 109.32 % of control and 101.46 % of control and 92.91 % of control and 104.81 % of control
same,"Specific BRET (690/540), % of control",FFA1-Nluc; log[Ligand] -9,98.23 % of control
same,"Specific BRET (540/450), % of control",FFA1-Nluc; log[Ligand] -10,110.45 % of control and 140.76 % of control and 99.39 % of control and 126.77 % of control and 105.68 % of control and 97.52 % of control and 91.86 % of control and 108.31 % of control
same,"Specific BRET (690/540), % of control",FFA1-Nluc; log[ligand] -8,82.90 % of control
same,"'bottom' of the IC50 curve, DISCo-BRET NBD/Nluc",FFA1-Nluc; percentage of binding obtained in the absence of competing ligand,360%
same,"'bottom' of the IC50 curve, DISCo-BRET SulfoCy5/NBD","FFA1-Nluc; percentage of binding obtained in the absence of competing ligand, 100 nM TUG-2591 and […] TUG-2597",-3.0%
same,Specific BRET (690/450)%,Nluc-FFA1; log[Ligand] -6,10.18% and 12.73% and 3.99% and 7.92% and 4.81% and 6.50%
same,Specific BRET (690/450)%,Nluc-FFA1; log[Ligand] -6.5,32.21% and 35.14% and 21.21% and 27.75% and 22.79% and 22.32%
same,Specific BRET (690/450)%,Nluc-FFA1; log[Ligand] -7,65.25% and 65.98% and 70.04% and 73.07% and 59.65% and 56.69%
same,Specific BRET (690/450)%,Nluc-FFA1; log[Ligand] -7.5,85.12% and 83.85% and 95.80% and 94.83% and 87.89% and 88.68%
same,Specific BRET (690/450)%,Nluc-FFA1; log[Ligand] -8,89.18% and 88.01% and 105.30% and 110.61% and 94.39% and 90.53%
same,Specific BRET (690/450)%,Nluc-FFA1; log[Ligand] -9,97.11% and 97.99% and 104.48% and 114.53% and 100.63% and 97.67%
same,Specific BRET (690/450)%,Nluc-FFA1; log[Ligand] -10,87.86% and 92.46% and 110.54% and 109.16% and 102.75% and 97.62%
same,Specific BRET (690/450)%,Nluc-FFA1; log[Ligand] -11,100.29% and 99.71% and 99.72% and 100.28% and 98.52% and 101.48%
same,Specific BRET (540/450)%,Nluc-FFA1; log[Ligand] -9,172.87% and 190.47% and 142.88% and 120.34% and 106.26% and 112.65% and 111.64% and 106.85%
same,Specific BRET (540/450)%,Nluc-FFA1; log[Ligand] -10,149.59% and 142.25% and 115.93% and 128.15% and 104.61% and 106.65% and 101.74% and 108.27%
same,Specific BRET (540/450)%,Nluc-FFA1; log[Ligand] -11,103.21% and 96.79% and 95.91% and 104.09% and 99.52% and 100.48% and 105.48% and 94.52%
